Among the data in patent publication US9732097B2, “Process for the synthesis of a phosphoinositide 3-kinase inhibitor” (Incyte Corporation, priority 2015, dated 2017) are IC50 and JAK2/JAK1 values, retold here.

SMILES strings stand for the structures.

For one assay, the target named is human JAK1 (Homo sapiens, UniProt P23458). Nature of the assay: In vitro JAK kinase assay (Example D, HTRF), JAK1. Type of assay: biochemical. The settings on record: 1 mM ATP. (Time-resolved FRET reads energy transfer from a long-lived donor to a nearby acceptor.)
The target in the next assay is human JAK2 (Homo sapiens (Human), UniProt O60674). Nature of the assay: In vitro JAK kinase assay (Example D, HTRF), JAK2. In kind it is biochemical. The settings on record: ratio of JAK2 to JAK1 IC50, 1 mM ATP.
human JAK2, sequence (O60674 828-1132): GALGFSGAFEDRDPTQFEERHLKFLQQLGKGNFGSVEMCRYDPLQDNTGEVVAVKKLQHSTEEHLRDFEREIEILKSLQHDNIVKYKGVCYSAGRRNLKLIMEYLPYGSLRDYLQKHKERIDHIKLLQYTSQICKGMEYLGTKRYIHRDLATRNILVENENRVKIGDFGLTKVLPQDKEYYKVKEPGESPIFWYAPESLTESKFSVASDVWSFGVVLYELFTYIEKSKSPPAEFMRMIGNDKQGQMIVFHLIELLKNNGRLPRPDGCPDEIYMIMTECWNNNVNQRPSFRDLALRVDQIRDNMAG

At human JAK1, `N#CCC(C1CCN(c2cccc(Cl)n2)C1)n1cc(-c2ncnc3[nH]ccc23)cn1` (single isomer, unassigned) [compound 3, 3-[1-(6-chloropyridin-2-yl)pyrrolidin-3-yl]-3-[4-(7H-pyrrolo[2,3-d]pyrimidin-4-yl)-1H-pyrazol-1-yl]propanenitrile] had an IC50 below 10 nM. Also, the JAK2/JAK1 at human JAK2 is above 10.
`C[C@@H](O)c1nc2cnc3ccsc3c2n1[C@H]1CC[C@H](CC#N)OC1` [compound 1, ((2R,5S)-5-{2-[(1R)-1-hydroxyethyl]-1H-imidazo[4,5-d]thieno[3,2-b]pyridin-1-yl}tetrahydro-2H-pyran-2-yl)acetonitrile] yielded an IC50 against human JAK1 below 100 nM. For the same molecule, the JAK2/JAK1 at human JAK2 is reported as above 10.
Taken in the same sequence, the figures for `N#CCC(C1CCN(c2nc3cccnc3o2)C1)n1cc(-c2ncnc3[nH]ccc23)cn1` (stereo not drawn) [compound 4, 3-(1-[1,3]oxazolo[5,4-b]pyridin-2-ylpyrrolidin-3-yl)-3-[4-(7H-pyrrolo[2,3-d]pyrimidin-4-yl)-1H-pyrazol-1-yl]propanenitrile] were below 10 nM and above 10.
As for `N#CCC(CN1CCN(C(=O)c2ccc(C#N)cc2F)CC1)n1cc(-c2ncnc3[nH]ccc23)cn1` (stereo not drawn) [compound 5, 4-[(4-{3-cyano-2-[4-(7H-pyrrolo[2,3-d]pyrimidin-4-yl)-1H-pyrazol-1-yl]propyl}piperazin-1-yl)carbonyl]-3-fluorobenzonitrile], the IC50 against human JAK1 was below 10 nM. Moreover, the JAK2/JAK1 on human JAK2 is above 10.
Molecule `N#CCC(CN1CCN(C(=O)c2ccc(C#N)cc2F)CC1)n1ccc(-c2ncnc3[nH]ccc23)c1` (stereo not drawn) [compound 6, 4-[(4-{3-cyano-2-[3-(7H-pyrrolo[2,3-d]pyrimidin-4-yl)-1H-pyrrol-1-yl]propyl}piperazin-1-yl)carbonyl]-3-fluorobenzonitrile] registered an IC50 at human JAK1 below 10 nM. The JAK2/JAK1 on human JAK2 was above 10.
As for `N#CCC1(n2cc(-c3ncnc4[nH]ccc34)cn2)CN(C2CCN(C(=O)c3ccnc(C(F)(F)F)c3F)CC2)C1` [compound 7, {1-{1-[3-Fluoro-2-(trifluoromethyl)isonico-tinoyl]piperidin-4-yl}-3-[4-(7H-pyrrolo[2,3-d]pyrimidin-4-yl)-1H-pyrazol-1-yl]azetidin-3-yl}acetonitrile], the IC50 on human JAK1 is below 10 nM. Moreover, at human JAK2, the JAK2/JAK1 was above 10.
For the molecule `N#CCC1(n2cc(-c3ncnc4[nH]ccc34)cn2)CN(C2CCN(C(=O)Nc3ccc(F)cc3C(F)(F)F)CC2)C1` [compound 8, 4-{3-(Cyanomethyl)-3-[4-(7H-pyrrolo[2,3-d]pyrimidin-4-yl)-1H-pyrazol-1-yl]azetidin-1-yl}-N-[4-fluoro-2-(trifluoromethyl)phenyl] piperidine-1-carboxamide], the IC50 on human JAK1 was below 10 nM. The JAK2/JAK1 at human JAK2 was above 10.
Regarding `N#CCC1(n2cc(-c3ncnc4[nH]ccc34)cn2)CN(C2CCN(C(=O)c3ccnc(C(F)(F)F)n3)CC2)C1` [compound 9, [3-[4-(7H-pyrrolo[2,3-d]pyrimidin-4-yl)-1H-pyrazol-1-yl]-1-(1-{[2-(trifluoromethyl)pyrim-idin-4-yl]carbonyl}piperidin-4-yl)azetidin-3-yl]acetonitrile], the half-maximal inhibitory concentration (IC50) at human JAK1 was below 10 nM. Further, on human JAK2, the JAK2/JAK1 is reported as above 10.
`N#CC[C@]1(n2cc(-c3ncnc4[nH]ccc34)cn2)C[C@H](N2CCN(C(=O)c3ccnc(C(F)(F)F)n3)CC2)C1` [compound 10, [trans-1-[4-(7H-pyrrolo[2,3-d]pyrimidin-4-yl)-1H-pyrazol-1-yl]-3-(4-{[2-(trifluoromethyl)pyrim-idin-4-yl]carbonyl}piperazin-1-yl)cyclobutyl]acetonitrile]: the IC50 on human JAK1 is below 10 nM. The JAK2/JAK1 at human JAK2 is recorded as above 10.
Molecule `N#CC[C@]1(n2cc(-c3ncnc4[nH]ccc34)cn2)C[C@H](N2CCC(Oc3cc(CN4CC(O)C4)cc(C(F)(F)F)n3)CC2)C1` [compound 11, {trans-3-(4-{[4-[(3-hydroxyazetidin-1-yl)methyl]-6-(trifluoromethyl)pyridin-2-yl]oxy}piperidin-1-yl)-1-[4-(7H-pyrrolo[2,3-d]pyrimidin-4-yl)-1H-pyrazol-1-yl]cyclobutyl}acetonitrile] showed an IC50 against human JAK1 below 10 nM. Moreover, at human JAK2, the JAK2/JAK1 is above 10.
For the molecule `N#CC[C@]1(n2cc(-c3ncnc4[nH]ccc34)cn2)C[C@H](N2CCC(Oc3cc(CN4CCC[C@H]4CO)cc(C(F)(F)F)n3)CC2)C1` [compound 12, {trans-3-(4-{[4-{[(2S)-2-(hydroxymethyl)pyrrolidin-1-yl]methyl}-6-(trifluoromethyl)pyridin-2-yl]oxy}piperidin-1-yl)-1-[4-(7H-pyrrolo[2,3-d]pyrimidin-4-yl)-1H-pyrazol-1-yl]cyclobutyl}acetonitrile], the IC50 against human JAK1 was below 10 nM. In addition, the JAK2/JAK1 at human JAK2 was above 10.
Taken in the same sequence, the figures for `N#CC[C@]1(n2cc(-c3ncnc4[nH]ccc34)cn2)C[C@H](N2CCC(Oc3cc(CN4CCC[C@@H]4CO)cc(C(F)(F)F)n3)CC2)C1` [compound 13, {trans-3-(4-{[4-{[(2R)-2-(hydroxymethyl)pyrrolidin-1-yl]methyl}-6-(trifluoromethyl)pyridin-2-yl]oxy}piperidin-1-yl)-1-[4-(7H-pyrrolo[2,3-d]pyrimidin-4-yl)-1H-pyrazol-1-yl]cyclobutyl}acetonitrile] were below 10 nM and above 10.
In the same order, the values of `C[C@H](NC(=O)c1cc(F)c(N2CC(CC#N)(n3cc(-c4ncnc5[nH]ccc45)cn3)C2)cc1F)C(F)(F)F` [compound 16, 4-{3-(cyanomethyl)-3-[4-(7H-pyrrolo[2,3-d]pyrimidin-4-yl)-1H-pyrazol-1-yl]azetidin-1-yl}-2,5-difluoro-N-[(1S)-2,2,2-trifluoro-1-methylethyl]benzamide] are below 10 nM and above 10.
On to `N#CCC1(n2cc(-c3ncnc4[nH]ccc34)cn2)CN([C@H]2CC[C@@H](Oc3cc(CCO)nc(C(F)(F)F)n3)CC2)C1` [compound 18, {1-(cis-4-{[6-(2-hydroxyethyl)-2-(trifluoromethyl)pyrimidin-4-yl]oxy}cyclohexyl)-3-[4-(7H-pyrrolo[2,3-d]pyrimidin-4-yl)-1H-pyrazol-1-yl]azetidin-3-yl}acetonitrile], for which, on human JAK1, the IC50 was below 10 nM. Moreover, at human JAK2, the JAK2/JAK1 is above 10.
At human JAK1, `CCNCc1cc(O[C@H]2CC[C@@H](N3CC(CC#N)(n4cc(-c5ncnc6[nH]ccc56)cn4)C3)CC2)nc(C(F)(F)F)c1` [compound 19, {1-(cis-4-{[4-[(ethylamino)methyl]-6-(trifluoromethyl)pyridin-2-yl]oxy}cyclohexyl)-3-[4-(7H-pyrrolo[2,3-d]pyrimidin-4-yl)-1H-pyrazol-1-yl]azetidin-3-yl]acetonitrile] returned a half-maximal inhibitory concentration (IC50) below 10 nM. Further, the JAK2/JAK1 on human JAK2 is listed as above 10.
Turning to `N#CCC1(n2cc(-c3ncnc4[nH]ccc34)cn2)CN([C@H]2CC[C@@H](Oc3cc(CN4CC[C@@H](O)C4)cc(C(F)(F)F)n3)CC2)C1` [compound 21, {1-(cis-4-{[4-{[(3R)-3-hydroxypyrrolidin-1-yl]methyl}-6-(trifluoromethyl)pyridin-2-yl]oxy}cyclohexyl)-3-[4-(7H-pyrrolo[2,3-d]pyrimidin-4-yl)-1H-pyrazol-1-yl]azetidin-3-yl}acetonitrile], the IC50 against human JAK1 was below 10 nM. Also, on human JAK2, the JAK2/JAK1 is on record as above 10.
For `N#CCC1(n2cc(-c3ncnc4[nH]ccc34)cn2)CN([C@H]2CC[C@@H](Oc3cc(CN4CC[C@H](O)C4)cc(C(F)(F)F)n3)CC2)C1` [compound 22, {1-(cis-4-{[4-{[(3S)-3-hydroxypyrrolidin-1-yl]methyl}-6-(trifluoromethyl)pyridin-2-yl]oxy}cyclohexyl)-3-[4-(7H-pyrrolo[2,3-d]pyrimidin-4-yl)-1H-pyrazol-1-yl]azetidin-3-yl}acetonitrile], the IC50 on human JAK1 was below 10 nM. Further, the JAK2/JAK1 on human JAK2 is on record as above 10.
Taken in the same sequence, the figures for `C[C@@H](CO)NCc1cc(OC2CCN([C@H]3C[C@](CC#N)(n4cc(-c5ncnc6[nH]ccc56)cn4)C3)CC2)nc(C(F)(F)F)c1` [compound 23, {trans-3-(4-{[4-({[(1S)-2-hydroxy-1-methylethyl]amino}methyl)-6-(trifluoromethyl)pyridin-2-yl]oxy}piperidin-1-yl)-1-[4-(7H-pyrrolo[2,3-d]pyrimidin-4-yl)-1H-pyrazol-1-yl]cyclobutyl}acetonitrile] were below 10 nM and above 10.
Turning to `C[C@@H](O)CNCc1cc(OC2CCN([C@H]3C[C@](CC#N)(n4cc(-c5ncnc6[nH]ccc56)cn4)C3)CC2)nc(C(F)(F)F)c1` [compound 24, {trans-3-(4-{[4-({[(2R)-2-hydroxypropyl]amino}methyl)-6-(trifluoromethyl)pyridin-2-yl]oxy}piperidin-1-yl)-1-[4-(7H-pyrrolo[2,3-d]pyrimidin-4-yl)-1H-pyrazol-1-yl]cyclobutyl}acetonitrile], the IC50 at human JAK1 was below 10 nM. In addition, the JAK2/JAK1 on human JAK2 was above 10.
The molecule `C[C@H](O)CNCc1cc(OC2CCN([C@H]3C[C@](CC#N)(n4cc(-c5ncnc6[nH]ccc56)cn4)C3)CC2)nc(C(F)(F)F)c1` [compound 25, {trans-3-(4-{[4-({[(2S)-2-hydroxypropyl]amino}methyl)-6-(trifluoromethyl)pyridin-2-yl]oxy}piperidin-1-yl)-1-[4-(7H-pyrrolo[2,3-d]pyrimidin-4-yl)-1H-pyrazol-1-yl]cyclobutyl}acetonitrile] had an IC50 at human JAK1 below 10 nM. Besides, the JAK2/JAK1 on human JAK2 is recorded as above 10.
`N#CC[C@]1(n2cc(-c3ncnc4[nH]ccc34)cn2)C[C@H](N2CCC(Oc3cc(CCO)cc(C(F)(F)F)n3)CC2)C1` [compound 26, {trans-3-(4-{[4-(2-hydroxyethyl)-6-(trifluoromethyl)pyridin-2-yl]oxy}piperidin-1-yl)-1-[4-(7H-pyrrolo[2,3-d]pyrimidin-4-yl)-1H-pyrazol-1-yl]cyclobutyl}acetonitrile] returned an IC50 at human JAK1 below 10 nM. The JAK2/JAK1 at human JAK2 is listed as above 10.

As usually defined, the IC50 is the midpoint of a concentration-inhibition curve. A high value points to lower potency.
